Laboratory results taken from US8889670B2, “Heterocyclic compounds which modulate the CB2 receptor” (Boehringer Ingelheim International GmbH, priority 2009, dated 2014).
Read-outs that look alike come from different tables or passages of the source.

Target: T1, human CB2R (Homo sapiens, UniProt P34972)
T1 construct: host or cells: CHO cells
Assay: CB2R mediated modulation of cAMP synthesis (forskolin-stimulated cAMP, CHO cells expressing human CB2R)
Format: cell-based
Description: B. CB2R Mediated Modulation of cAMP Synthesis:
Compounds of the invention were evaluated for their CB2 agonist or inverse agonistic activity in accordance with the following experimental method.
CHO cells expressing human CB2R (Euroscreen) were plated at a density of 5000 cells per well in 384 well plates and incubated overnight at 37° C. After removing the media, the cells were treated with test compounds diluted in stimulation buffer containing 1 mM IBMX, 0.25% BSA and 10 uM Forskolin. The assay was incubated for 30 minutes at 37° C. Cells were lysed and the cAMP concentration was measured using DiscoverX-XS cAMP kit, following the manufacturer's protocol. In this setting, agonists will decrease forskolin induced production of cAMP while inverse agonists will further increase forskolin induced production of cAMP. EC50 of agonists were calculated as follows. The maximal amount of cAMP produced by forskolin compared to the level of cAMP inhibited by 1 uM CP55940 is defined as 100%. […] Data was analyzed using a four-parameter logistic model. (Model 205 of XLfit 4.0).

[1] = agonist EC50, inhibition of forskolin-stimulated cAMP synthesis, CHO cells expressing human CB2R, mean, read-out: CB2 CAMP @ EC50 nM (mean)

T1 sequence (P34972 whole entry): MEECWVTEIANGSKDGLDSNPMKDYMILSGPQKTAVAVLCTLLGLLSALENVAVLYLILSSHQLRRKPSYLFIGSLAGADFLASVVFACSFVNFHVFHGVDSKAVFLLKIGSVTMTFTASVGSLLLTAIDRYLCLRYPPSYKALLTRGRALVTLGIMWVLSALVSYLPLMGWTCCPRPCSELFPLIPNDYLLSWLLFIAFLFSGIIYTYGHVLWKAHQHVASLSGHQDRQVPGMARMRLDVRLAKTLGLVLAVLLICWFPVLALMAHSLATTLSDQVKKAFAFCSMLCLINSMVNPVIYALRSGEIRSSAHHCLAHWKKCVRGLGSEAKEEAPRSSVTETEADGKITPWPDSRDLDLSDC

## CC(C)(C)c1cc(NC(=O)[C@@H]2CCCCN2C(=O)C(F)(F)F)no1 [(S)-1-(2,2,2-Trifluoro-acetyl)-piperidine-2-carboxylic acid (5-tert-butyl-isoxazol-3-yl)-amide]
  EC50: 48 nM

## CC(C)(C)c1cc(NC(=O)[C@@H]2CCCCN2C(=O)N2CCC(F)(F)CC2)no1 [(S)-1-(4,4-Difluoro-piperidine-1-carbonyl)-piperidine-2-carboxylic acid (5-tert-butyl-isoxazol-3-yl)-amide]
  EC50: 3.7 nM

## CC(C)(C)c1cc(NC(=O)[C@@H]2CCCN(C(=O)C3CCC(F)(F)CC3)C2)no1 [(R)-1-(4,4-Difluoro-cyclohexanecarbonyl)-piperidine-3-carboxylic acid (5-tert-butyl-isoxazol-3-yl)-amide]
  EC50: 42 nM

## CC(C)(C)c1cc(NC(=O)[C@@H]2CCCCN2C(=O)CN2CCC(F)(F)CC2)no1 [(S)-1-[2-(4,4-Difluoro-piperidin-1-yl)-acetyl]-piperidine-2-carboxylic acid (5-tert-butyl-isoxazol-3-yl)-amide]
  EC50: 34 nM

## O=C(NCCSCc1c(F)cccc1Cl)[C@@H]1CCCCN1C(=O)N1CCS(=O)(=O)CC1 [(S)-1-(1,1-Dioxo-1λ^6-thiomorpholine-4-carbonyl)-piperidine-2-carboxylic acid [2-(2-chloro-6-fluoro-benzylsulfanyl)-ethyl]-amide]
[1]
  EC50: 130 nM

## CC(C)(C)c1cc(NC(=O)[C@@H]2CCCCN2CC2CCOCC2)sn1 [(S)-1-(Tetrahydro-pyran-4-ylmethyl)-piperidine-2-carboxylic acid (3-tert-butyl-isothiazol-5-yl)-amide]
  EC50: 0.3 nM

## CC(C)(C)c1cc(NC(=O)[C@@H]2CCCCN2C(=O)CN2CCC(F)(F)C2)no1 [(S)-1-[2-(3,3-Difluoro-pyrrolidin-1-yl)-acetyl]-piperidine-2-carboxylic acid (5-tert-butyl-isoxazol-3-yl)-amide]
  EC50: 2.9 nM

## CC(C)(C)c1cc(NC(=O)[C@H]2CCCCN2C(=O)C2CCC(F)(F)CC2)no1 [(R)-1-(4,4-Difluoro-cyclohexanecarbonyl)-piperidine-2-carboxylic acid (5-tert-butyl-isoxazol-3-yl)-amide]
  EC50: 64 nM

## CC(C)(C)c1cc(NC(=O)C2CCCN(c3ncc(C(F)(F)F)cc3Cl)C2)no1 (stereo not drawn) [3′-Chloro-5′-trifluoromethyl-3,4,5,6-tetrahydro-2H-[1,2′]bipyridinyl-3-carboxylic acid (5-tert-butyl-isoxazol-3-yl)-amide]
  EC50: 113 nM

## O=C(Nc1nc(-c2ccccc2)ns1)[C@@H]1CCCCN1c1ncc(C(F)(F)F)cc1Cl [(S)-3′-Chloro-5′-trifluoromethyl-3,4,5,6-tetrahydro-2H-1,2′-bipyridinyl-2-carboxylic acid (3-phenyl-1,2,4-thiadiazol-5-yl)-amide]
[1]
  EC50: 11 nM

## CCc1sc(NC(=O)[C@@H]2CCCCN2C(=O)N2CCS(=O)(=O)CC2)nc1-c1ccccc1 [(S)-1-(1,1-Dioxo-1λ^6-thiomorpholine-4-carbonyl)-piperidine-2-carboxylic acid (5-ethyl-4-phenyl-thiazol-2-yl)-amide]
[1]
  EC50: 5.2 nM

## CC(C)(C)c1cc(NC(=O)C2CCCCN2C(=O)C2CCC(F)(F)CC2)no1 (stereo not drawn) [1-(4,4-Difluoro-cyclohexanecarbonyl)-piperidine-2-carboxylic acid (5-tert-butyl-isoxazol-3-yl)-amide]
  EC50: 11 nM

## CC(C)(C)c1nnc(NC(=O)[C@@H]2CCCCN2C(=O)N2CCS(=O)(=O)CC2)s1 [(S)-1-(1,1-Dioxo-1λ^6-thiomorpholine-4-carbonyl)-piperidine-2-carboxylic acid (5-tert-butyl-1,3,4-thiadiazol-2-yl)-amide]
[1]
  EC50: 53 nM

## CC(C)(C)c1cc(NC(=O)[C@@H]2CCCCCN2c2ccc(Cl)cc2)no1 [(S)-1-(4-Chloro-phenyl)-azepane-2-carboxylic acid (5-tert-butyl-isoxazol-3-yl)-amide]
  EC50: 0.4 nM

## CC(C)(C)c1cc(NC(=O)[C@@H]2CCCCN2C(=O)C2CCS(=O)(=O)C2)no1 (stereo partly drawn) [(S)-1-(1,1-Dioxo-tetrahydro-1λ^6-thiophene-3-carbonyl)-piperidine-2-carboxylic acid (5-tert-butyl-isoxazol-3-yl)-amide]
  EC50: 17 nM

## CC(C)(C)c1cc(NC(=O)[C@@H]2CCCCN2C(=O)C[C@H]2CCCO2)no1 [(S)-1-((R)-2-Tetrahydro-furan-2-yl-acetyl)-piperidine-2-carboxylic acid (5-tert-butyl-isoxazol-3-yl)-amide]
  EC50: 94 nM

## CC(C)(C)c1cc(NC(=O)C2CCCN(C(=O)C3CCOCC3)C2)no1 (stereo not drawn) [1-(Tetrahydro-pyran-4-carbonyl)-piperidine-3-carboxylic acid (5-tert-butyl-isoxazol-3-yl)-amide]
[1]
  EC50: 205 nM

## O=C(Nc1nc(C2CCCCC2)cs1)[C@@H]1CCCCN1C1CCOCC1 [(S)-1-(Tetrahydro-pyran-4-yl)-piperidine-2-carboxylic acid (4-cyclohexyl-thiazol-2-yl)-amide]
[1]
  EC50: 65 nM

## O=C(Nc1ccc(C(F)(F)F)cn1)[C@@H]1CCCCN1CC1CCOCC1 [(S)-1-(Tetrahydro-pyran-4-ylmethyl)-piperidine-2-carboxylic acid (5-trifluoromethyl-pyridin-2-yl)-amide]
  EC50: 69 nM

## CC(C)(C)c1cc(NC(=O)C2CCCN(C(=O)c3ccc(C(F)(F)F)cc3)C2)no1 (stereo not drawn) [1-(4-Trifluoromethyl-benzoyl)-piperidine-3-carboxylic acid (5-tert-butyl-isoxazol-3-yl)-amide]
  EC50: 16 nM

## COc1ccc(S(=O)(=O)N2CCCC[C@H]2C(=O)Nc2cc(C(C)(C)C)on2)cc1 [(S)-1-(4-Methoxy-benzenesulfonyl)-piperidine-2-carboxylic acid (5-tert-butyl-isoxazol-3-yl)-amide]
  EC50: 27 nM

## CC(C)(C)c1coc(NC(=O)[C@@H]2CCCCN2CC2CCOCC2)n1 [(S)-1-(Tetrahydro-pyran-4-ylmethyl)-piperidine-2-carboxylic acid (4-tert-butyl-oxazol-2-yl)-amide]
  EC50: 2.4 nM

## O=C(Nc1nc(-c2ccc(F)c(F)c2)cs1)[C@@H]1CCCCN1C(=O)N1CCS(=O)(=O)CC1 [(S)-1-(1,1-Dioxo-1λ^6-thiomorpholine-4-carbonyl)-piperidine-2-carboxylic acid [4-(3,4-difluoro-phenyl)-thiazol-2-yl]-amide]
[1]
  EC50: 26 nM

## CC(C)(C)c1nsc(NC(=O)[C@@H]2CCCCN2CC2CCOCC2)n1 [(S)-1-(Tetrahydro-pyran-4-ylmethyl)-piperidine-2-carboxylic acid (3-tert-butyl-1,2,4-thiadiazol-5-yl)-amide]
  EC50: 12 nM

## CCc1sc(NC(=O)[C@@H]2CCCCN2CC2CCOCC2)nc1-c1ccccc1 [(S)-1-(Tetrahydro-pyran-4-ylmethyl)-piperidine-2-carboxylic acid (5-ethyl-4-phenyl-thiazol-2-yl)-amide]
[1]
  EC50: 0.55 nM

## CC(C)(C)c1cc(NC(=O)[C@@H]2CCCCCN2CC2CCOCC2)no1 [(S)-1-(Tetrahydro-pyran-4-ylmethyl)-azepane-2-carboxylic acid (5-tert-butyl-isoxazol-3-yl)-amide]
  EC50: 0.03 nM

## CC(C)(C)c1cc(NC(=O)[C@@H]2CCCCN2C(=O)CN2CCC(F)CC2)no1 [(S)-1-[2-(4-Fluoro-piperidin-1-yl)-acetyl]-piperidine-2-carboxylic acid (5-tert-butyl-isoxazol-3-yl)-amide]
  EC50: 75 nM
